# PubChem BioAssay AID2060494 (Molecular Pharmacology Branch, DTP, NCI, 2025)
# Tested on: 435261-313-R-J1-PDC complex spheroid viability
# Assay: Anticancer human tumor 435261-313-R-J1-PDC patient-derived colon adenocarcinoma cell line growth inhibition [GQUAD]
# Details: for IC50: curve of first compound; for viability, T/C: stronger effect = lower value
# Outline: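 Multi-cell-type spheroids of tumor cells with HUVEC and mesenchymal stem cells, treated with drug combinations. Concentrations descend in half-log steps from near clinical Cmax, or from 10 microM where Cmax is unknown; viability read-out.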
# [1] = second compound 0.0316 µM, first compound 0.000999 µM
# [2] = second compound 0.0316 µM, first compound 0.00316 µM
# [3] = second compound 0.0316 µM, first compound 0.00999 µM
# [4] = second compound 0.0316 µM, first compound 0.0316 µM
# [5] = second compound 0.0316 µM, first compound 0.0999 µM
# [6] = second compound 0.0316 µM, first compound 0.316 µM
# [7] = second compound 0.1 µM, first compound 0.000999 µM
# [8] = second compound 0.1 µM, first compound 0.00316 µM
# [9] = second compound 0.1 µM, first compound 0.00999 µM
# [10] = second compound 0.1 µM, first compound 0.0316 µM
# [11] = second compound 0.1 µM, first compound 0.0999 µM
# [12] = second compound 0.1 µM, first compound 0.316 µM
# [13] = second compound 0.316 µM, first compound 0.000999 µM
# [14] = second compound 0.316 µM, first compound 0.00316 µM
# [15] = second compound 0.316 µM, first compound 0.00999 µM
# [16] = second compound 0.316 µM, first compound 0.0316 µM
# [17] = second compound 0.316 µM, first compound 0.0999 µM
# [18] = second compound 0.316 µM, first compound 0.316 µM
# [19] = second compound 1 µM, first compound 0.000999 µM
# [20] = second compound 1 µM, first compound 0.00316 µM
# [21] = second compound 1 µM, first compound 0.00999 µM
# [22] = second compound 1 µM, first compound 0.0316 µM
# [23] = second compound 1 µM, first compound 0.0999 µM
# [24] = second compound 1 µM, first compound 0.316 µM
# [25] = second compound 3.16 µM, first compound 0.000999 µM
# [26] = second compound 3.16 µM, first compound 0.00316 µM
# [27] = second compound 3.16 µM, first compound 0.00999 µM
# [28] = second compound 3.16 µM, first compound 0.0316 µM
# [29] = second compound 3.16 µM, first compound 0.0999 µM
# [30] = second compound 3.16 µM, first compound 0.316 µM
# [31] = second compound 10 µM, first compound 0.000999 µM
# [32] = second compound 10 µM, first compound 0.00316 µM
# [33] = second compound 10 µM, first compound 0.00999 µM
# [34] = second compound 10 µM, first compound 0.0316 µM
# [35] = second compound 10 µM, first compound 0.0999 µM
# [36] = second compound 10 µM, first compound 0.316 µM
# 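Further: spheroids exposed to the agents for seven days before readout.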
# 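Wherever viability, T/C is given: percent of vehicle control viability with DMSO wells as 100%.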
structure (smiles),measurement,setting,value
Cc1[nH]c2ccccc2c1CCNCc1ccc(/C=C/C(=O)NO)cc1 + CN(C)c1ccc(Nc2c3ccc(NC(=O)CCN4CCCC4)cc3nc3cc(NC(=O)CCN4CCCC4)ccc23)cc1,IC50,second compound 0.0316 µM,80.3 nM
same,IC50,second compound 0.1 µM,55.8 nM
same,IC50,second compound 0.316 µM,74.7 nM
same,IC50,second compound 1 µM,61.4 nM
same,IC50,second compound 3.16 µM,25.5 nM
same,IC50,second compound 10 µM,< 0.999 nM
same,"viability, T/C",[1],84.5%
same,"viability, T/C",[2],86%
same,"viability, T/C",[3],95%
same,"viability, T/C",[4],69.2%
same,"viability, T/C",[5],45.9%
same,"viability, T/C",[6],9.48%
same,"viability, T/C",[7],134%
same,"viability, T/C",[8],96.6%
same,"viability, T/C",[9],79.4%
same,"viability, T/C",[10],59.7%
same,"viability, T/C",[11],50.8%
same,"viability, T/C",[12],11%
same,"viability, T/C",[13],104%
same,"viability, T/C",[14],99.5%
same,"viability, T/C",[15],91.4%
same,"viability, T/C",[16],69.4%
same,"viability, T/C",[17],43.8%
same,"viability, T/C",[18],9.1%
same,"viability, T/C",[19],76.7%
same,"viability, T/C",[20],74.3%
same,"viability, T/C",[21],58.5%
same,"viability, T/C",[22],62.1%
same,"viability, T/C",[23],45.5%
same,"viability, T/C",[24],10.1%
same,"viability, T/C",[25],119%
same,"viability, T/C",[26],79.2%
same,"viability, T/C",[27],62.7%
same,"viability, T/C",[28],56.2%
same,"viability, T/C",[29],28.5%
same,"viability, T/C",[30],6.97%
same,"viability, T/C",[31],44.3%
same,"viability, T/C",[32],49.4%
same,"viability, T/C",[33],23.3%
same,"viability, T/C",[34],18.3%
same,"viability, T/C",[35],22.6%
same,"viability, T/C",[36],4.75%
COc1ccc([C@@H](O)c2cc(-c3ncnc4cc(N5CCOCC5)ccc34)c(F)cc2Cl)nn1 + Cc1[nH]c2ccc(F)cc2c1-c1nc2c3cccnc3c3ncccc3c2[nH]1,IC50,second compound 0.0316 µM,1080 nM
same,IC50,second compound 0.1 µM,4220 nM
same,IC50,second compound 0.316 µM,3420 nM
same,IC50,second compound 1 µM,2810 nM
same,IC50,second compound 3.16 µM,< 31.6 nM
same,IC50,second compound 10 µM,< 31.6 nM
same,"viability, T/C",[4],88.7%
same,"viability, T/C","second compound 0.0316 µM, first compound 0.1 µM",64.5%
same,"viability, T/C",[6],88.6%
same,"viability, T/C","second compound 0.0316 µM, first compound 1 µM",50.8%
same,"viability, T/C","second compound 0.0316 µM, first compound 3.16 µM",44.5%
same,"viability, T/C","second compound 0.0316 µM, first compound 10 µM",30.4%
same,"viability, T/C",[10],99%
same,"viability, T/C","second compound 0.1 µM, first compound 0.1 µM",97.6%
same,"viability, T/C",[12],106%
same,"viability, T/C","second compound 0.1 µM, first compound 1 µM",70.2%
same,"viability, T/C","second compound 0.1 µM, first compound 3.16 µM",62.7%
same,"viability, T/C","second compound 0.1 µM, first compound 10 µM",24.5%
same,"viability, T/C",[16],63.4%
same,"viability, T/C","second compound 0.316 µM, first compound 0.1 µM",99.4%
same,"viability, T/C",[18],70.5%
same,"viability, T/C","second compound 0.316 µM, first compound 1 µM",87.9%
same,"viability, T/C","second compound 0.316 µM, first compound 3.16 µM",51.8%
same,"viability, T/C","second compound 0.316 µM, first compound 10 µM",25.2%
same,"viability, T/C",[22],67.8%
same,"viability, T/C","second compound 1 µM, first compound 0.1 µM",65.3%
same,"viability, T/C",[24],82%
same,"viability, T/C","second compound 1 µM, first compound 1 µM",45.2%
same,"viability, T/C","second compound 1 µM, first compound 3.16 µM",55.4%
same,"viability, T/C","second compound 1 µM, first compound 10 µM",20%
same,"viability, T/C",[28],45.2%
same,"viability, T/C","second compound 3.16 µM, first compound 0.1 µM",30.1%
same,"viability, T/C",[30],35.5%
same,"viability, T/C","second compound 3.16 µM, first compound 1 µM",36.4%
same,"viability, T/C","second compound 3.16 µM, first compound 3.16 µM",13.6%
same,"viability, T/C","second compound 3.16 µM, first compound 10 µM",10.9%
same,"viability, T/C",[34],19.8%
same,"viability, T/C","second compound 10 µM, first compound 0.1 µM",21.9%
same,"viability, T/C",[36],27.1%
same,"viability, T/C","second compound 10 µM, first compound 1 µM",18.7%
same,"viability, T/C","second compound 10 µM, first compound 3.16 µM",13.2%
same,"viability, T/C","second compound 10 µM, first compound 10 µM",8.61%
Cn1ncnc1[C@H]1c2n[nH]c(=O)c3cc(F)cc(c23)N[C@@H]1c1ccc(F)cc1 + Cc1[nH]c2ccc(F)cc2c1-c1nc2c3cccnc3c3ncccc3c2[nH]1,IC50,second compound 0.0316 µM,> 316 nM
same,IC50,second compound 0.1 µM,> 316 nM
same,IC50,second compound 0.316 µM,> 316 nM
same,IC50,second compound 1 µM,> 316 nM
same,IC50,second compound 3.16 µM,< 0.999 nM
same,IC50,second compound 10 µM,< 0.999 nM
same,"viability, T/C",[1],125%
same,"viability, T/C",[2],95.4%
same,"viability, T/C",[3],87.6%
same,"viability, T/C",[4],77.8%
same,"viability, T/C",[5],93.9%
same,"viability, T/C",[6],87%
same,"viability, T/C",[7],79.2%
same,"viability, T/C",[8],83.9%
same,"viability, T/C",[9],114%
same,"viability, T/C",[10],101%
same,"viability, T/C",[11],99.5%
same,"viability, T/C",[12],80.9%
same,"viability, T/C",[13],86.9%
same,"viability, T/C",[14],110%
same,"viability, T/C",[15],92.1%
same,"viability, T/C",[16],71.7%
same,"viability, T/C",[17],82.9%
same,"viability, T/C",[18],68.5%
same,"viability, T/C",[19],60.2%
same,"viability, T/C",[20],67.9%
same,"viability, T/C",[21],94.8%
same,"viability, T/C",[22],72.2%
same,"viability, T/C",[23],60.3%
same,"viability, T/C",[24],56.2%
same,"viability, T/C",[25],43.7%
same,"viability, T/C",[26],37.5%
same,"viability, T/C",[27],25.6%
same,"viability, T/C",[28],38.6%
same,"viability, T/C",[29],31.8%
same,"viability, T/C",[30],41.7%
same,"viability, T/C",[31],18.4%
same,"viability, T/C",[32],32.4%
same,"viability, T/C",[33],31.2%
same,"viability, T/C",[34],22.7%
same,"viability, T/C",[35],22.6%
same,"viability, T/C",[36],22.1%
